Source: patent publication US20260130395A1, “Water Dispersible Botanical Compositions” (Aquila Black Limited, priority 2021, published 2026)

What was measured:
[1] = Stability of cannabinoid entourage and Vitamin E components of the powder concentrate by LCMSMS; type: physicochemical; settings: powder stored at 21-25° C.
Procedure: At each time period, 0.05 g of powder was dissolved in 10 ml-15 of ethanol, diluted to fall within the analytical range, and injected into the LCMSMS for analysis.

[2] = Stability of cannabinoid compounds and Vitamin E components in Beverage 2 (AB Red) by LCMSMS; type: physicochemical; settings: stored at 8° C.

## CCCCCc1cc2c(c(O)c1C(=O)O)[C@@H]1C=C(C)CC[C@H]1C(C)(C)O2 [D9 THCA, delta-9-tetrahydrocannabinolic acid]
[1]; 0 days
  Stability of Plant-Derived Cannabinoid Compounds in Powder Concentrate: 0.150 mg/g powder
[1]; 1 days
  Stability of Plant-Derived Cannabinoid Compounds in Powder Concentrate: 0.150 mg/g powder
[1]; 2 days
  Stability of Plant-Derived Cannabinoid Compounds in Powder Concentrate: 0.147 mg/g powder
[1]; 3 days
  Stability of Plant-Derived Cannabinoid Compounds in Powder Concentrate: 0.150 mg/g powder
[1]; 5 days
  Stability of Plant-Derived Cannabinoid Compounds in Powder Concentrate: 0.146 mg/g powder
[1]; 8 days
  Stability of Plant-Derived Cannabinoid Compounds in Powder Concentrate: 0.156 mg/g powder
[1]; 9 days
  Stability of Plant-Derived Cannabinoid Compounds in Powder Concentrate: 0.151 mg/g powder
[1]; 10 days
  Stability of Plant-Derived Cannabinoid Compounds in Powder Concentrate: 0.148 mg/g powder
[1]; 11 days
  Stability of Plant-Derived Cannabinoid Compounds in Powder Concentrate: 0.145 mg/g powder
[1]; 12 days
  Stability of Plant-Derived Cannabinoid Compounds in Powder Concentrate: 0.152 mg/g powder
[1]; 15 days
  Stability of Plant-Derived Cannabinoid Compounds in Powder Concentrate: 0.151 mg/g powder
[1]; 16 days
  Stability of Plant-Derived Cannabinoid Compounds in Powder Concentrate: 0.157 mg/g powder
[1]; 17 days
  Stability of Plant-Derived Cannabinoid Compounds in Powder Concentrate: 0.156 mg/g powder
[1]; 18 days
  Stability of Plant-Derived Cannabinoid Compounds in Powder Concentrate: 0.149 mg/g powder
[1]; 19 days
  Stability of Plant-Derived Cannabinoid Compounds in Powder Concentrate: 0.146 mg/g powder
[1]; 22 days
  Stability of Plant-Derived Cannabinoid Compounds in Powder Concentrate: 0.150 mg/g powder
[1]; 23 days
  Stability of Plant-Derived Cannabinoid Compounds in Powder Concentrate: 0.147 mg/g powder
[1]; 24 days
  Stability of Plant-Derived Cannabinoid Compounds in Powder Concentrate: 0.150 mg/g powder
[1]; 25 days
  Stability of Plant-Derived Cannabinoid Compounds in Powder Concentrate: 0.150 mg/g powder
[1]; 26 days
  Stability of Plant-Derived Cannabinoid Compounds in Powder Concentrate: 0.150 mg/g powder
[1]; 29 days
  Stability of Plant-Derived Cannabinoid Compounds in Powder Concentrate: 0.152 mg/g powder
[1]; 30 days
  Stability of Plant-Derived Cannabinoid Compounds in Powder Concentrate: 0.151 mg/g powder
[1]; 60 days
  Stability of Plant-Derived Cannabinoid Compounds in Powder Concentrate: 0.146 mg/g powder
[1]; 90 days
  Stability of Plant-Derived Cannabinoid Compounds in Powder Concentrate: 0.147 mg/g powder
[1]; 120 days
  Stability of Plant-Derived Cannabinoid Compounds in Powder Concentrate: 0.147 mg/g powder
[1]; 150 days
  Stability of Plant-Derived Cannabinoid Compounds in Powder Concentrate: 0.153 mg/g powder
[1]; 180 days
  Stability of Plant-Derived Cannabinoid Compounds in Powder Concentrate: 0.154 mg/g powder
[1]; 210 days
  Stability of Plant-Derived Cannabinoid Compounds in Powder Concentrate: 0.151 mg/g powder
[1]; 240 days
  Stability of Plant-Derived Cannabinoid Compounds in Powder Concentrate: 0.148 mg/g powder
[1]; 270 days
  Stability of Plant-Derived Cannabinoid Compounds in Powder Concentrate: 0.148 mg/g powder
[1]; 300 days
  Stability of Plant-Derived Cannabinoid Compounds in Powder Concentrate: 0.156 mg/g powder
[1]; 330 days
  Stability of Plant-Derived Cannabinoid Compounds in Powder Concentrate: 0.156 mg/g powder
[1]; 360 days
  Stability of Plant-Derived Cannabinoid Compounds in Powder Concentrate: 0.155 mg/g powder
[1]; 390 days
  Stability of Plant-Derived Cannabinoid Compounds in Powder Concentrate: 0.153 mg/g powder
[1]; 420 days
  Stability of Plant-Derived Cannabinoid Compounds in Powder Concentrate: 0.154 mg/g powder
[1]; 450 days
  Stability of Plant-Derived Cannabinoid Compounds in Powder Concentrate: 0.155 mg/g powder
[1]; 480 days
  Stability of Plant-Derived Cannabinoid Compounds in Powder Concentrate: 0.149 mg/g powder
[1]; 510 days
  Stability of Plant-Derived Cannabinoid Compounds in Powder Concentrate: 0.154 mg/g powder
[1]; 540 days
  Stability of Plant-Derived Cannabinoid Compounds in Powder Concentrate: 0.154 mg/g powder
[1]; 570 days
  Stability of Plant-Derived Cannabinoid Compounds in Powder Concentrate: 0.148 mg/g powder
[2]; 0 days
  Stability of Plant-Derived Cannabinoid Compounds in AB Red: 1.35 µg/mL
[2]; 1 days
  Stability of Plant-Derived Cannabinoid Compounds in AB Red: 1.34 µg/mL
[2]; 2 days
  Stability of Plant-Derived Cannabinoid Compounds in AB Red: 1.34 µg/mL
[2]; 3 days
  Stability of Plant-Derived Cannabinoid Compounds in AB Red: 1.35 µg/mL
[2]; 5 days
  Stability of Plant-Derived Cannabinoid Compounds in AB Red: 1.36 µg/mL
[2]; 8 days
  Stability of Plant-Derived Cannabinoid Compounds in AB Red: 1.35 µg/mL
[2]; 9 days
  Stability of Plant-Derived Cannabinoid Compounds in AB Red: 1.36 µg/mL
[2]; 10 days
  Stability of Plant-Derived Cannabinoid Compounds in AB Red: 1.35 µg/mL
[2]; 11 days
  Stability of Plant-Derived Cannabinoid Compounds in AB Red: 1.35 µg/mL
[2]; 12 days
  Stability of Plant-Derived Cannabinoid Compounds in AB Red: 1.32 µg/mL
[2]; 15 days
  Stability of Plant-Derived Cannabinoid Compounds in AB Red: 1.33 µg/mL
[2]; 16 days
  Stability of Plant-Derived Cannabinoid Compounds in AB Red: 1.31 µg/mL
[2]; 17 days
  Stability of Plant-Derived Cannabinoid Compounds in AB Red: 1.34 µg/mL
[2]; 18 days
  Stability of Plant-Derived Cannabinoid Compounds in AB Red: 1.35 µg/mL
[2]; 19 days
  Stability of Plant-Derived Cannabinoid Compounds in AB Red: 1.32 µg/mL
[2]; 22 days
  Stability of Plant-Derived Cannabinoid Compounds in AB Red: 1.34 µg/mL
[2]; 23 days
  Stability of Plant-Derived Cannabinoid Compounds in AB Red: 1.33 µg/mL
[2]; 24 days
  Stability of Plant-Derived Cannabinoid Compounds in AB Red: 1.33 µg/mL
[2]; 25 days
  Stability of Plant-Derived Cannabinoid Compounds in AB Red: 1.34 µg/mL
[2]; 26 days
  Stability of Plant-Derived Cannabinoid Compounds in AB Red: 1.33 µg/mL
